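Tested at 5 concentrations; 48 h exposure; 96-well plates; endpoints linearly interpolated, else capped at highest concentration. Definition used: TGI = concentration required for complete inhibition of growth.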
Columns and labels:
Assay in all cases: NCI-60 cell line screen, 48 h
786-0 renal = tested on: 786-0 renal
A498 renal = tested on: A498 renal
A549 NSCLC = tested on: A549 NSCLC
ACHN renal = tested on: ACHN renal
BT-549 breast = tested on: BT-549 breast
CAKI-1 renal = tested on: CAKI-1 renal
CCRF-CEM leukemia = tested on: CCRF-CEM leukemia
COLO 205 colon = tested on: COLO 205 colon
DU-145 prostate = tested on: DU-145 prostate
EKVX NSCLC = tested on: EKVX NSCLC
HCC-2998 colon = tested on: HCC-2998 colon
HCT-116 colon = tested on: HCT-116 colon
HCT-15 colon = tested on: HCT-15 colon
HOP-62 NSCLC = tested on: HOP-62 NSCLC
HS 578T breast = tested on: HS 578T breast
HT29 colon = tested on: HT29 colon
IGROV1 ovarian = tested on: IGROV1 ovarian
KM12 colon = tested on: KM12 colon
LOX IMVI melanoma = tested on: LOX IMVI melanoma
M14 melanoma = tested on: M14 melanoma
MALME-3M melanoma = tested on: MALME-3M melanoma
MCF7 breast = tested on: MCF7 breast
MDA-MB-231 breast = tested on: MDA-MB-231 breast
MDA-MB-435 = tested on: MDA-MB-435
MDA-N = tested on: MDA-N
MOLT-4 leukemia = tested on: MOLT-4 leukemia
NCI-H226 lung = tested on: NCI-H226 lung
NCI-H23 lung = tested on: NCI-H23 lung
NCI-H460 lung = tested on: NCI-H460 lung
NCI-H522 lung = tested on: NCI-H522 lung
NCI/ADR-RES ovarian = tested on: NCI/ADR-RES ovarian
OVCAR-3 ovarian = tested on: OVCAR-3 ovarian
OVCAR-4 ovarian = tested on: OVCAR-4 ovarian
OVCAR-5 ovarian = tested on: OVCAR-5 ovarian
OVCAR-8 ovarian = tested on: OVCAR-8 ovarian
PC-3 prostate = tested on: PC-3 prostate
RPMI-8226 leukemia = tested on: RPMI-8226 leukemia
RXF 393 renal = tested on: RXF 393 renal
SF-268 CNS = tested on: SF-268 CNS
SF-295 CNS = tested on: SF-295 CNS
SF-539 CNS = tested on: SF-539 CNS
SK-MEL-2 melanoma = tested on: SK-MEL-2 melanoma
SK-MEL-28 melanoma = tested on: SK-MEL-28 melanoma
SK-MEL-5 melanoma = tested on: SK-MEL-5 melanoma
SK-OV-3 ovarian = tested on: SK-OV-3 ovarian
SN12C renal = tested on: SN12C renal
SNB-75 CNS = tested on: SNB-75 CNS
SW-620 colon = tested on: SW-620 colon
T-47D breast = tested on: T-47D breast
TK-10 renal = tested on: TK-10 renal
U251 CNS = tested on: U251 CNS
UACC-257 melanoma = tested on: UACC-257 melanoma
UACC-62 melanoma = tested on: UACC-62 melanoma
UO-31 renal = tested on: UO-31 renal
HL-60(TB) leukemia = tested on: HL-60(TB) leukemia
HOP-92 NSCLC = tested on: HOP-92 NSCLC
K-562 leukemia = tested on: K-562 leukemia
SNB-19 CNS = tested on: SNB-19 CNS
SR leukemia = tested on: SR leukemia

Structure (SMILES): NC(Cc1ccc(S(=O)(=O)O)cc1)C(=O)NC(Cc1ccc(S(=O)(=O)O)cc1)C(=O)NC(Cc1ccc(S(=O)(=O)O)cc1)C(=O)NC(Cc1ccc(S(=O)(=O)O)cc1)C(=O)O (stereo not drawn)
- TGI (786-0 renal): > 100 µM
- TGI (A498 renal): > 100 µM
- TGI (A549 NSCLC): > 100 µM
- TGI (ACHN renal): > 100 µM
- TGI (BT-549 breast): > 100 µM
- TGI (CAKI-1 renal): > 100 µM
- TGI (CCRF-CEM leukemia): > 100 µM
- TGI (COLO 205 colon): > 100 µM
- TGI (DU-145 prostate): > 100 µM
- TGI (EKVX NSCLC): > 100 µM
- TGI (HCC-2998 colon): > 100 µM
- TGI (HCT-116 colon): > 100 µM
- TGI (HCT-15 colon): > 100 µM
- TGI (HOP-62 NSCLC): > 100 µM
- TGI (HS 578T breast): > 100 µM
- TGI (HT29 colon): > 100 µM
- TGI (IGROV1 ovarian): > 100 µM
- TGI (KM12 colon): > 100 µM
- TGI (LOX IMVI melanoma): > 100 µM
- TGI (M14 melanoma): > 100 µM
- TGI (MALME-3M melanoma): > 100 µM
- TGI (MCF7 breast): > 100 µM
- TGI (MDA-MB-231 breast): > 100 µM
- TGI (MDA-MB-435): > 100 µM
- TGI (MDA-N): > 100 µM
- TGI (MOLT-4 leukemia): > 100 µM
- TGI (NCI-H226 lung): > 100 µM
- TGI (NCI-H23 lung): > 100 µM
- TGI (NCI-H460 lung): > 100 µM
- TGI (NCI-H522 lung): > 100 µM
- TGI (NCI/ADR-RES ovarian): > 100 µM
- TGI (OVCAR-3 ovarian): > 100 µM
- TGI (OVCAR-4 ovarian): > 100 µM
- TGI (OVCAR-5 ovarian): > 100 µM
- TGI (OVCAR-8 ovarian): > 100 µM
- TGI (PC-3 prostate): > 100 µM
- TGI (RPMI-8226 leukemia): > 100 µM
- TGI (RXF 393 renal): > 100 µM
- TGI (SF-268 CNS): > 100 µM
- TGI (SF-295 CNS): > 100 µM
- TGI (SF-539 CNS): > 100 µM
- TGI (SK-MEL-2 melanoma): > 100 µM
- TGI (SK-MEL-28 melanoma): > 100 µM
- TGI (SK-MEL-5 melanoma): > 100 µM
- TGI (SK-OV-3 ovarian): > 100 µM
- TGI (SN12C renal): > 100 µM
- TGI (SNB-75 CNS): > 100 µM
- TGI (SW-620 colon): > 100 µM
- TGI (T-47D breast): > 100 µM
- TGI (TK-10 renal): > 100 µM
- TGI (U251 CNS): > 100 µM
- TGI (UACC-257 melanoma): > 100 µM
- TGI (UACC-62 melanoma): > 100 µM
- TGI (UO-31 renal): > 100 µM

Structure (SMILES): CC1(C)CC(=O)c2c(nc3c4c([nH]c(-c5ccc(Br)cc5)c24)CC(C)(C)C3)C1
- TGI (786-0 renal): 91 µM
- TGI (A498 renal): 86.7 µM
- TGI (A549 NSCLC): > 100 µM
- TGI (ACHN renal): > 100 µM
- TGI (BT-549 breast): > 100 µM
- TGI (CAKI-1 renal): > 100 µM
- TGI (CCRF-CEM leukemia): > 100 µM
- TGI (COLO 205 colon): 54.2 µM
- TGI (DU-145 prostate): > 100 µM
- TGI (EKVX NSCLC): > 100 µM
- TGI (HCC-2998 colon): > 100 µM
- TGI (HCT-116 colon): > 100 µM
- TGI (HCT-15 colon): > 100 µM
- TGI (HL-60(TB) leukemia): > 100 µM
- TGI (HOP-62 NSCLC): > 100 µM
- TGI (HOP-92 NSCLC): > 100 µM
- TGI (HS 578T breast): > 100 µM
- TGI (HT29 colon): > 100 µM
- TGI (K-562 leukemia): > 100 µM
- TGI (KM12 colon): > 100 µM
- TGI (LOX IMVI melanoma): > 100 µM
- TGI (M14 melanoma): > 100 µM
- TGI (MALME-3M melanoma): > 100 µM
- TGI (MCF7 breast): > 100 µM
- TGI (MDA-MB-231 breast): > 100 µM
- TGI (MDA-MB-435): > 100 µM
- TGI (MDA-N): > 100 µM
- TGI (MOLT-4 leukemia): > 100 µM
- TGI (NCI-H226 lung): > 100 µM
- TGI (NCI-H23 lung): > 100 µM
- TGI (NCI-H460 lung): > 100 µM
- TGI (NCI-H522 lung): > 100 µM
- TGI (NCI/ADR-RES ovarian): > 100 µM
- TGI (OVCAR-3 ovarian): > 100 µM
- TGI (OVCAR-4 ovarian): > 100 µM
- TGI (OVCAR-5 ovarian): > 100 µM
- TGI (OVCAR-8 ovarian): > 100 µM
- TGI (PC-3 prostate): > 100 µM
- TGI (RXF 393 renal): 65.3 µM
- TGI (SF-268 CNS): > 100 µM
- TGI (SF-295 CNS): > 100 µM
- TGI (SF-539 CNS): > 100 µM
- TGI (SK-MEL-2 melanoma): > 100 µM
- TGI (SK-MEL-28 melanoma): > 100 µM
- TGI (SK-MEL-5 melanoma): > 100 µM
- TGI (SK-OV-3 ovarian): > 100 µM
- TGI (SN12C renal): > 100 µM
- TGI (SNB-19 CNS): > 100 µM
- TGI (SNB-75 CNS): > 100 µM
- TGI (SR leukemia): 59.1 µM
- TGI (SW-620 colon): > 100 µM
- TGI (T-47D breast): > 100 µM
- TGI (TK-10 renal): > 100 µM
- TGI (U251 CNS): > 100 µM
- TGI (UACC-257 melanoma): > 100 µM
- TGI (UACC-62 melanoma): > 100 µM
- TGI (UO-31 renal): > 100 µM

Structure (SMILES): CC(C)(C)NC(=O)CCC1C(C(=O)NC(C)(C)C)C2(Cl)C(Cl)=C(Cl)C1(Cl)C2(Cl)Cl (stereo not drawn)
- TGI (786-0 renal): > 100 µM
- TGI (A498 renal): > 100 µM
- TGI (A549 NSCLC): > 100 µM
- TGI (ACHN renal): > 100 µM
- TGI (BT-549 breast): > 100 µM
- TGI (CCRF-CEM leukemia): > 100 µM
- TGI (COLO 205 colon): > 100 µM
- TGI (DU-145 prostate): > 100 µM
- TGI (EKVX NSCLC): > 100 µM
- TGI (HCC-2998 colon): > 100 µM
- TGI (HCT-116 colon): > 100 µM
- TGI (HCT-15 colon): > 100 µM
- TGI (HL-60(TB) leukemia): > 100 µM
- TGI (HOP-62 NSCLC): > 100 µM
- TGI (HS 578T breast): > 100 µM
- TGI (HT29 colon): > 100 µM
- TGI (IGROV1 ovarian): > 100 µM
- TGI (K-562 leukemia): > 100 µM
- TGI (KM12 colon): > 100 µM
- TGI (LOX IMVI melanoma): > 100 µM
- TGI (M14 melanoma): > 100 µM
- TGI (MALME-3M melanoma): > 100 µM
- TGI (MCF7 breast): > 100 µM
- TGI (MDA-MB-231 breast): > 100 µM
- TGI (MDA-MB-435): > 100 µM
- TGI (MDA-N): > 100 µM
- TGI (MOLT-4 leukemia): > 100 µM
- TGI (NCI-H226 lung): > 100 µM
- TGI (NCI-H23 lung): > 100 µM
- TGI (NCI-H460 lung): > 100 µM
- TGI (NCI-H522 lung): > 100 µM
- TGI (NCI/ADR-RES ovarian): > 100 µM
- TGI (OVCAR-3 ovarian): > 100 µM
- TGI (OVCAR-4 ovarian): > 100 µM
- TGI (OVCAR-5 ovarian): > 100 µM
- TGI (OVCAR-8 ovarian): > 100 µM
- TGI (PC-3 prostate): > 100 µM
- TGI (RPMI-8226 leukemia): > 100 µM
- TGI (RXF 393 renal): > 100 µM
- TGI (SF-268 CNS): > 100 µM
- TGI (SF-295 CNS): > 100 µM
- TGI (SF-539 CNS): > 100 µM
- TGI (SK-MEL-2 melanoma): > 100 µM
- TGI (SK-MEL-28 melanoma): > 100 µM
- TGI (SK-MEL-5 melanoma): > 100 µM
- TGI (SK-OV-3 ovarian): > 100 µM
- TGI (SN12C renal): > 100 µM
- TGI (SNB-19 CNS): > 100 µM
- TGI (SNB-75 CNS): > 100 µM
- TGI (SR leukemia): > 100 µM
- TGI (SW-620 colon): > 100 µM
- TGI (T-47D breast): > 100 µM
- TGI (TK-10 renal): > 100 µM
- TGI (U251 CNS): > 100 µM
- TGI (UACC-257 melanoma): > 100 µM
- TGI (UACC-62 melanoma): > 100 µM
- TGI (UO-31 renal): > 100 µM
